Source: ChEMBL document CHEMBL1128856, “Paclitaxel and docetaxel photoaffinity labels” (1995)

Tests used:
Assay type in all cases: functional
[1] = In vitro cytotoxicity against B16 melanoma cells relative to paclitaxel ED50 = 1
[2] = Ability to induce the formation of microtubules using microtubule assembly assay in vitro relative to paclitaxel ED50 = 1
[3] = In vitro cytotoxicity against P388 cells relative to paclitaxel ED50 = 1

Structure (SMILES) | Ratio [1] | Ratio [2] | Ratio [3]
CC(=O)O[C@H]1C(=O)[C@@]2(C)[C@H]([C@H](OC(=O)c3cccc(N=[N+]=[N-])c3)[C@]3(O)C[C@H](OC(=O)[C@H](O)[C@@H](NC(=O)OC(C)(C)C)c4ccccc4)C(C)=C1C3(C)C)[C@]1(OC(C)=O)CO[C@@H]1C[C@@H]2O | 0.37 | 1.2 | 
CC(=O)O[C@H]1C(=O)[C@@]2(C)[C@H]([C@H](OC(=O)c3ccccc3)[C@]3(O)C[C@H](OC(=O)[C@H](O)[C@@H](NC(=O)c4ccc(N=[N+]=[N-])cc4)c4ccccc4)C(C)=C1C3(C)C)[C@]1(OC(C)=O)CO[C@@H]1C[C@@H]2O | 4.6 | 2 | 
CC(=O)O[C@H]1C(=O)[C@@]2(C)[C@H]([C@H](OC(=O)c3ccccc3)[C@]3(O)C[C@H](OC(=O)[C@H](O)[C@@H](NC(=O)c4cc(N=[N+]=[N-])cc([N+](=O)[O-])c4)c4ccccc4)C(C)=C1C3(C)C)[C@]1(OC(C)=O)CO[C@@H]1C[C@@H]2O | 17.4 | 3 | 
CC(=O)O[C@H]1C(=O)[C@@]2(C)[C@H]([C@H](OC(=O)c3ccccc3)[C@]3(O)C[C@H](OC(=O)[C@H](O)[C@@H](NC(=O)c4cccc(N=[N+]=[N-])c4)c4ccccc4)C(C)=C1C3(C)C)[C@]1(OC(C)=O)CO[C@@H]1C[C@@H]2O | 2.6 | 0.81 | 
CC(=O)O[C@@]12CO[C@@H]1C[C@H](O)[C@@]1(C)C(=O)[C@H](O)C3=C(C)[C@@H](OC(=O)[C@H](O)[C@@H](NC(=O)OC(C)(C)C)c4ccccc4)C[C@@](O)([C@@H](OC(=O)c4ccccc4)[C@H]21)C3(C)C.O.O.O [DOCETAXEL] | 0.41 | 0.45 | 
CC(=O)O[C@H]1C(=O)[C@@]2(C)[C@H]([C@H](OC(=O)c3cccc(N=[N+]=[N-])c3)[C@]3(O)C[C@H](OC(=O)[C@H](O)[C@@H](NC(=O)c4ccccc4)c4ccccc4)C(C)=C1C3(C)C)[C@]1(OC(C)=O)CO[C@@H]1C[C@@H]2O | 0.65 | 0.4 | 0.08
CC(=O)O[C@H]1C(=O)[C@@]2(C)[C@H]([C@H](OC(=O)c3ccccc3)[C@]3(O)C[C@H](OC(=O)[C@H](O)[C@@H](NC(=O)c4ccccc4)c4ccccc4)C(C)=C1C3(C)C)[C@]1(OC(C)=O)CO[C@@H]1C[C@@H]2O [PACLITAXEL] | 1 | 1 | 
